Tests used:
Assay type in all cases: in vivo
Alopecurus myosuroides = test: Herbicidal post-emergence action, ALOMY
Description: (§1) 2. Herbicidal Post-Emergence Action
(§2) • Seeds of monocotyledonous and dicotyledonous weed and crop plants are placed in sandy loam in wood-fiber pots, covered with soil and cultivated in a greenhouse under good growth conditions. 2 to 3 weeks after sowing, the test plants are treated at the one-leaf stage. The test compounds, formulated as wettable powders (WP), are then, with a water application rate of 600 l/ha (converted), with 0.2% of wetting agent added, sprayed at various dosages onto the green parts of the plants. After the test plants have been kept in the greenhouse under optimum growth conditions for about 3 weeks, the activity of the preparations is rated visually in comparison to untreated controls (herbicidal activity in percent: 100% activity=the plants have died, 0% activity=like control plants). • In addition to the compounds mentioned above, the following compounds show an activity of 90-100% against Alopecurus myosuroides, Avena fatua, Digitaria sanguinalis, Echinocloa crus-galli, Lolium multiflorum, Setaria viridis and Sorghum halapense when applied by the post-emergence method at 320 g/ha: I-a-2, I-a-4, I-a-5, I-a-7, I-a-9, I-a-10, I-a-11, I-a-12, I-a-13, I-a-15. • In addition to the compounds mentioned above, the following compounds show an activity of 90-100% against Alopecurus myosuroides, Avena fatua, Echinocloa crus-galli, Lolium multiflorum and Setaria viridis when applied by the post-emergence method at 80 g/ha: I-a-1, I-b-2.
(§3) • Seeds of monocotyledonous and dicotyledonous weed plants and crop plants are placed in wood-fiber pots in sandy loam and covered with soil. The test compounds, formulated in the form of wettable powders (WP) or emulsion concentrates (EC), are then, as an aqueous suspension with a water application rate of 600-800 l/ha (converted), with 0.1-0.2% of wetting agent added, applied at various dosages to the surface of the covering soil. • After the treatment, the pots are placed in a greenhouse and kept under good growth conditions for the test plants. […] Herbicidal Post-Emergence Action (Post) • Seeds of monocotyledonous and dicotyledonous weed and crop plants are placed in sandy loam in wood-fiber pots, covered with soil and cultivated in a greenhouse under good growth conditions. 2-3 weeks (stages 10-13 according to the BBCH scale) after sowing, the test plants are treated at a height of 5-10 cm. The test compounds, formulated as wettable powders (WP) or emulsion concentrates (EC), are then, with a water application rate of 600-800 l/ha (converted), with 0.1-0.2% of wetting agent added, sprayed at various dosages onto the green parts of the plants.
(§4) AVEFA: Avena fatua LOLMU: Lolium multiflorum SETVI: Setaria viridis CHEAL: Chenopodium album VIOTR: Viola tricolor VERPE: Veronica persica ORYSA: Oryza sativa TRZAS: Triticum aestivum ZEAMX: Zea mays ALOMY: Alopecurus myosuroides DIGSA: Digitaria sanguinalis ECHCG: Echinocloa crus-galli SORHA: Sorghum halepense AVESA: Avena sativa AMARE: Amaranthus retroflexus SINAL: Sinapis alba STEME: Stellaria media

Avena fatua = test: Herbicidal post-emergence action, AVEFA
Description: as §1, §2, §3, §4

Lolium multiflorum = test: Herbicidal post-emergence action, LOLMU
Description: as §1, §2, §3, §4

Oryza sativa = test: Herbicidal post-emergence action, ORYSA
Source text: as §3, §4

Triticum aestivum = test: Herbicidal post-emergence action, TRZAS
Source text: as §3, §4

Zea mays = test: Herbicidal post-emergence action, ZEAMX
Source text: as §3, §4

Myzus persicae = test: Myzus test (MYZUPE spray treatment); details: for effect in % (aphids killed): application rate 500 g/ha, after 5 days, Chinese cabbage leaf discs
Description: Myzus Test (MYZUPE Spray Treatment) [table] To produce a suitable preparation of active compound, 1 part by weight of active compound is mixed with the stated amount of solvent and emulsifier, and the concentrate is diluted with emulsifier-containing water to the desired concentration. Discs of Chinese cabbage (Brassica pekinensis) infected by all stages of the green peach aphid (Myzus persicae) are sprayed with an active compound preparation of the desired concentration. After 5 days, the effect in % is determined 100% means that all of the aphids have been killed; 0% means that none of the aphids have been killed. Myzus Test (MYZUPE Spray Treatment) To produce a suitable preparation of active compound, 1 part by weight of active compound is mixed with the stated amount of solvent and emulsifier, and the concentrate is diluted with emulsifier-containing water to the desired concentration. Discs of Chinese cabbage (Brassica pekinensis) infected by all stages of the green peach aphid (Myzus persicae) are sprayed with an active compound preparation of the desired concentration. After the desired period of time, the activity in % is determined. 100% means that all of the aphids have been killed; 0% means that none of the aphids have been killed.

Tetranychus urticae = test: Tetranychus test (TETRUR spray treatment; OP-resistant in Example 10); details: for effect in % (spider mites killed): after 5 days, bean leaf discs
Description: Tetranychus Test (TETRUR Spray Treatment)
To produce a suitable preparation of active compound, 1 part by weight of active compound is mixed with the stated amount of solvent and emulsifier, and the concentrate is diluted with emulsifier-containing water to the desired concentration. Discs of bean leaves (Phaseolus vulgaris) which are infested by all stages of the greenhouse red spider mite (Tetranychus urticae) are sprayed with an active compound preparation of the desired concentration.
After 5 days, the effect in % is determined. 100% means that all of the spider mites have been killed; 0% means that none of the spider mites have been killed.
Tetranychus Test, OP-Resistant (TETRUR Spray Treatment)
To produce a suitable preparation of active compound, 1 part by weight of active compound is mixed with the stated amount of solvent and emulsifier, and the concentrate is diluted with emulsifier-containing water to the desired concentration.
Discs of bean leaves (Phaseolus vulgaris) which are infested by all stages of the greenhouse red spider mite (Tetranychus urticae) are sprayed with an active compound preparation of the desired concentration.
After the desired period of time, the activity in % is determined. 100% means that all of the spider mites have been killed; 0% means that none of the spider mites have been killed.

Phaedon cochleariae = test: Phaedon test (PHAECO spray treatment); details: for effect in % (beetle larvae killed): application rate 500 g/ha, after 7 days, Chinese cabbage leaf discs; for inhibition at 100 g/ha: Phaedon cochleariae, 168 h, 7dat
Description: Phaedon Test ([…] Spray Treatment) [table] To produce a suitable preparation of active compound, 1 part by weight of active compound is mixed with the stated amount of solvent and emulsifier, and the concentrate is diluted with emulsifier-containing water to the desired concentration. Discs of Chinese cabbage (Brassica pekinensis) are sprayed with an active compound preparation of the desired concentration and, after drying, populated with larvae of the mustard beetle (Phaedon cochleariae). After 7 days, the effect in % is determined 100% means that all beetle larvae have been killed; 0% means that none of the beetle larvae have been killed. Phaedon Test ([…] Spray Treatment) To produce a suitable preparation of active compound, 1 part by weight of active compound is mixed with the stated amount of solvent and emulsifier, and the concentrate is diluted with emulsifier-containing water to the desired concentration. Discs of Chinese cabbage (Brassica pekinensis) are sprayed with an active compound preparation of the desired concentration and, after drying, populated with larvae of the mustard beetle (Phaedon cochleariae). After the desired period of time, the activity in % is determined. 100% means that all beetle larvae have been killed; 0% means that none of the beetle larvae have been killed.

Echinocloa crus-galli = test: Herbicidal post-emergence action, ECHCG
Description: as §1, §2, §3, §4

Boophilus microplus = Boophilus microplus test (BOOPMI injection); details: 20 μg/animal, after 7 days
Description: Boophilus Microplus Test (BOOPMI Injection) [table] To prepare an appropriate active compound formulation, 10 mg of active compound are mixed with 0.5 ml of solvent and the concentrate is diluted with solvent to the desired concentration. The solution of active compound is injected into the abdomen (Boophilus microplus), and the animals are transferred into dishes and kept in a climatized room. The activity is assessed by deposition of fertile eggs. After 7 days, the effect in % is determined. 100% means that none of the ticks has laid any fertile eggs.

Digitaria sanguinalis = test: Herbicidal post-emergence action, DIGSA; details: 80 g/ha
Description: as §1, §2, §3, §4

Setaria viridis = test: Herbicidal post-emergence action, SETVI; details: 80 g/ha
Description: as §1, §2, §3, §4

Sorghum halepense = test: Herbicidal post-emergence action, SORHA; details: for % Activity SORHA: 80 g/ha
Description: as §1, §2, §3, §4

Compound: CCc1cc(Cl)cc(OC)c1C1=C(OC(=O)C(C)C)C2(CCCCC2)NC1=O
- % Activity ALOMY (Alopecurus myosuroides; concentration 80 g/ha 20 g/ha): 40%
- % Activity AVEFA (Avena fatua; concentration 80 g/ha 20 g/ha): 20%
- % Activity LOLMU (Lolium multiflorum; concentration 80 g/ha 20 g/ha): 50%
- % Activity ORYSA (Oryza sativa; concentration 80 g/ha 20 g/ha): 0%
- % Activity TRZAS (Triticum aestivum; concentration 80 g/ha 20 g/ha, first TRZAS column): 0%
- % Activity TRZAS (Triticum aestivum; concentration 80 g/ha 20 g/ha, second TRZAS column): 0%
- % Activity ZEAMX (Zea mays; concentration 80 g/ha 20 g/ha): 20%

Compound: CCC(C)(C)C(=O)OC1=C(c2cc(C)ccc2C)C(=O)N[C@]12CC[C@@H](OC)CC2
- inhibition at 20 g/ha (Myzus persicae; Myzus persicae, 120 h, 20 g/ha, 5dat): 0%
- inhibition at 500 g/ha (Tetranychus urticae; Tetranychus urticae, 120 h, 500 g/ha, 5dat, OP-resistant): 0%

Compound: CCc1cc(C)cc(Br)c1C1=C(OC(=O)C(C)C)NC(C)(C)C1=O [Example I-a-1]
- effect in % (beetle larvae killed) (Phaedon cochleariae): 83%
- effect in % (aphids killed) (Myzus persicae): 90%

Compound: CCOC(=O)OC1=C(c2cc(C)ccc2C)C(=O)N[C@@]12CCC[C@@H](COC)C2 [I-1-c-2 known from WO 07/048545]
- inhibition at 100 g/ha (Phaedon cochleariae): 50%
- inhibition at 4 g/ha (Myzus persicae; Myzus persicae, 120 h, 5dat): 0%

Compound: CCc1cc(Br)cc(C)c1C1=C(OC(=O)C(C)(C)C)NC2(CCC(OC)CC2)C1=O (centres unmarked) [I-a-5]
- % Activity ECHCG (Echinocloa crus-galli; 20 g/ha): 80%

Compound: CCCc1cc(Br)cc(Br)c1C1=C(OC(=O)C(C)(C)C)NC(C)(C)C1=O [I-a-11]
- effect in % (beetle larvae killed) (Phaedon cochleariae): 83%

Compound: CCc1cc(Br)cc(Cl)c1C1=C(OC(=O)C(C)(C)C)NC2(CCCCC2)C1=O [I-a-14]
- effect in % (beetle larvae killed) (Phaedon cochleariae): 100%
- effect in % (aphids killed) (Myzus persicae): 90%
- effect in % (spider mites killed) (Tetranychus urticae; application rate 500 g/ha): 90%
- efficacy in % (deposition of fertile eggs) (Boophilus microplus): 80%
- % Activity ALOMY (Alopecurus myosuroides; 80 g/ha): 80%
- % Activity AVEFA (Avena fatua; 80 g/ha): 100%
- % Activity DIGSA (Digitaria sanguinalis): 100%
- % Activity ECHCG (Echinocloa crus-galli; 80 g/ha): 100%
- % Activity LOLMU (Lolium multiflorum; 80 g/ha): 100%
- % Activity SETVI (Setaria viridis): 100%
- % Activity SORHA (Sorghum halepense): 100%
- % Activity SORHA (Sorghum halepense; second SORHA column): 90%
- % Activity ORYSA (Oryza sativa; 80 g/ha): 80%
- % Activity TRZAS (Triticum aestivum; 80 g/ha): 90%
- % Activity ZEAMX (Zea mays; 80 g/ha): 100%

Compound: CCC(C)(C)C(=O)OC1=C(c2cc(C)ccc2C)C(=O)C2(CCC(OC)CC2)N1 (centres unmarked) [I-a-16]
- % Activity MYZUPE (Myzus persicae; 20 g/ha, 5dat): 100%
- effect in % (aphids killed) (Myzus persicae): 100%
- % Activity TETRUR (Tetranychus urticae; 500 g/ha, 5dat, OP-resistant): 90%
- effect in % (spider mites killed) (Tetranychus urticae; application rate 500 g/ha): 90%

Compound: CCOC(=O)OC1=C(c2cc(C)ccc2C)C(=O)[C@@]2(CCC[C@H](COC)C2)N1 [I-b-1]
- inhibition at 100 g/ha (Phaedon cochleariae): 100%
- effect in % (beetle larvae killed) (Phaedon cochleariae): 100%
- inhibition at 4 g/ha (Myzus persicae; Myzus persicae, 120 h, 5dat): 90%
- effect in % (aphids killed) (Myzus persicae): 100%
- effect in % (spider mites killed) (Tetranychus urticae; application rate 100 g/ha): 100%
- efficacy in % (deposition of fertile eggs) (Boophilus microplus): 95%

Compound: CCc1cc(Br)cc(C)c1C1=C(OC(=O)C(C)(C)C)C2(CCC(OC)CC2)NC1=O (centres unmarked) [I-b-2 known from WO 05/006125]
- inhibition at 20 g/ha (Echinocloa crus-galli; Echinochloa crus-galli, post-emergence, 20 g/ha): 50%

Compound: CCOC(=O)OC1=C(c2cc(C)c(Cl)cc2C)C(=O)C2(CCC(COC)CC2)N1 (centres unmarked) [I-b-4]
- effect in % (aphids killed) (Myzus persicae): 90%

Compound: CCOC(=O)OC1=C(c2c(CC)cc(C)cc2C2CC2)C(=O)C(C)(C)N1 [I-b-5]
- effect in % (aphids killed) (Myzus persicae): 100%

Compound: CCc1cc(Br)cc(Cl)c1C1=C(OC(=O)C(C)(C)C)C2(CCCCC2)NC1=O [I-b-41 known from WO 04/065366]
- inhibition at 80 g/ha (Alopecurus myosuroides; Alopecurus myosuroides, post-emergence, 80 g/ha): 0%
- inhibition at 80 g/ha (Avena fatua; Avena fatua, post-emergence, 80 g/ha): 0%
- inhibition at 80 g/ha (Digitaria sanguinalis; Digitaria sanguinalis, post-emergence): 0%
- inhibition at 80 g/ha (Echinocloa crus-galli; Echinochloa crus-galli, post-emergence, 80 g/ha): 80%
- inhibition at 80 g/ha (Lolium multiflorum; Lolium multiflorum, post-emergence, 80 g/ha): 0%
- inhibition at 80 g/ha (Setaria viridis; Setaria viridis, post-emergence): 0%
- inhibition at 80 g/ha (Sorghum halepense; Sorghum halepense, post-emergence): 0%
- inhibition at 80 g/ha (Oryza sativa; Oryza sativa, post-emergence, 80 g/ha): 0%
- inhibition at 80 g/ha (Triticum aestivum; Triticum aestivum, post-emergence, 80 g/ha): 0%
- inhibition at 80 g/ha (Zea mays; Zea mays, post-emergence, 80 g/ha): 0%

Source: patent US9204640B2, “2-acyloxy-pyrrolin-4-ones” (BAYER INTELLECTUAL PROPERTY GMBH, priority 2011, dated 2015)
